Data from patent publication US20170290774A1, “NEUROKININ-1 RECEPTOR ANTAGONIST COMPOSITION FOR TREATMENT OF DISEASES AND CONDITIONS OF THE RESPIRATORY TRACT” (PLUS VITECH, S.L., priority 2014, published 2017).

How the values were obtained:
[1] = Tissue concentration of aprepitant by HPLC after oral or inhaled administration to rabbits; type: in vivo, New Zealand albino rabbits; conditions: oral, 10 to 100 mg/kg per day
MMP-14 = assay: Immunohistochemistry of MMP-14 in respiratory tract tissue of sodium hypochlorite aerosol-treated rabbits; type: in vivo, New Zealand albino rabbits
Text: It is known that the factors TGF-α, TGF-β 1, TGF-β 2, TGF-β 3, SPARC, MMP-3; MMP-7, MMP-9, MMP-11, MMP-13 and MMP-14, TGF-β, NF-kB, EGF, MMP-9, VEGF and TNF-α which are produced by lung cells (pneumocytes, fibroblasts and vascular endothelial cells) and inflammatory cells (macrophages, lymphocytes and polymorphonuclear leukocytes) are involved in the pathophysiology and development of said respiratory tract diseases. […] Herein, 27 New Zealand albino rabbits (New Zealand White Rabbit) with an initial average weight about 3 kg were used in this example. All subjects were administered an aerosol of a solution consisting of a mixture of water and sodium hypochlorite (35 g sodium hypochlorite per liter of water) at a rate of 5 mL of said solution by inhalation three times a day for 7 days (days 1 to 7 of experimentation). Subsequently, from days 3 to 7, a group of 3 rabbits (Group 1) was administered an oral dose of 10 mg/kg body weight per day, another group of 3 rabbits (Group 2) was administered an oral dose of 40 mg/kg body weight per day, a third group (Group 3) was administered an oral dose of 80 mg/kg body weight per day and a fourth group (Group 4) was administered an oral dose of 100 mg/kg body weight per day. […] This mixture was administered as an aerosol by inhalation, also from days 3 to 7, to a group of 3 rabbits (group 5) at a dose of 0.05 mg/kg body weight per day, to another group of three rabbits (Group 6) at a dose of 0.1 mg/kg body weight per day, to another group of three rabbits (Group 7) at a dose of 0.2 mg/kg body weight per day and to another group of three rabbits (Group 8) at a dose of 0.4 mg/kg body weight per day. A placebo consisting only of olive oil was administered from days 3 to 7 to a control group of 3 rabbits (placebo group). In parallel, 3 rabbits were kept under identical conditions but were not administered any treatment nor the aforementioned sodium hypochlorite solution (control group). […] On day 7 of the experiment all animals were euthanized and necropsied. […] Samples were taken at the peripheral level of the lung parenchyma, just below the pleural surface. Tissue samples were also taken from the nasal cavity, pharynx, larynx and bronchi. Immunohistochemistry studies were performed for all samples to evaluate the levels of the markers TGF-α, TGF-β 1, TGF-β 2, TGF-β 3 SPARC, MMP-3; MMP-7, MMP-9, MMP-11, MMP-14, TGF-β, TNF-α and VEGF. In said immunohistochemistry studies, a sample of each sample was dehydrated by treatment with increasing concentrations of ethanol and finally xylene. Subsequently said dried samples were embedded in paraffin, thus creating a block. Said paraffin blocks were cut on a microtome to a thickness of 5 μm, and the resulting sections (slices) were placed on slides suitable for conducting immunohistochemistry techniques. Subsequently, the sections were deparaffinised by immersion in xylene and then rehydrated through immersion in a series of solutions containing decreasing concentrations of ethanol and, finally, water. […] The samples were then allowed to cool to room temperature over 10 minutes. Endogenous peroxidase activity was blocked by treatment with 3% hydrogen peroxide over 30 min at room temperature. […] In order to verify the expression of NK1 receptors, the cell samples were incubated in the presence of anti-NK1 antibodies ([…], Sigma-Aldrich) diluted 1:1000 at 4° C. overnight. After this time they were washed in 0.05M Tris buffer at room temperature. Subsequently, Envision System-HRP (Dako) reagents were added for 30 min at room temperature. Once this time had expired, the samples were again washed with 0.05 M Tris buffer, and immunoreactivity was visualized by light microscopy with a chromogenic solution with 3,3'-diaminobenzidine (DAB+; Dako, USA). In order to differentiate the cell nuclei, these were lightly stained with haematoxylin. Samples that were not incubated with the primary antibody, but wherein this was replaced by a non-immune serum were used as negative controls. […]

C[C@@H](OC1OCCN(Cc2nc(=O)[nH][nH]2)C1c1ccc(F)cc1)c1cc(C(F)(F)F)cc(C(F)(F)F)c1 (stereo in doubt) [Aprepitant, 5-([(2R,3S)-2-((R)-1-[3,5-bis(trifluoromethyl)phenyl]ethoxy)-3-(4-fluorophenyl)morpholino]methyl)-1H-1,2,4-triazol-3(2H)-one]
relationship between dose and concentration in lung tissue [1]: non-linear and not proportional | Percent increase in MMP-14 with respect to the control group (MMP-14; bronchial tissue, Group 1, oral 10 mg/kg per day): 567.32% | Percent increase in MMP-14 with respect to the control group (MMP-14; bronchial tissue, Group 2, oral 40 mg/kg per day): 434.45% | Percent increase in MMP-14 with respect to the control group (MMP-14; bronchial tissue, Group 3, oral 80 mg/kg per day): 325.56% | Percent increase in MMP-14 with respect to the control group (MMP-14; bronchial tissue, Group 4, oral 100 mg/kg per day): 312.56% | % Med G5/C: percent increase in marker MMP-14 with respect to the control group (MMP-14; bronchial tissue, Group 5): 458.45% | % Med G6/C: percent increase in marker MMP-14 with respect to the control group (MMP-14; bronchial tissue, Group 6): 342.32% | % Med G7/C: percent increase in marker MMP-14 with respect to the control group (MMP-14; bronchial tissue, Group 7): 246.47% | % Med G8/C: percent increase in marker MMP-14 with respect to the control group (MMP-14; bronchial tissue, Group 8): 164.63% | Percent increase in MMP-14 with respect to the control group (MMP-14; laryngeal tissue, Group 1, oral 10 mg/kg per day): 678.45% | Percent increase in MMP-14 with respect to the control group (MMP-14; laryngeal tissue, Group 2, oral 40 mg/kg per day): 567.34% | Percent increase in MMP-14 with respect to the control group (MMP-14; laryngeal tissue, Group 3, oral 80 mg/kg per day): 459.43% | Percent increase in MMP-14 with respect to the control group (MMP-14; laryngeal tissue, Group 4, oral 100 mg/kg per day): 387.34% | Percent increase in MMP-14 with respect to the control group (MMP-14; laryngeal tissue, Group 5, inhalation 0.05 mg/kg per day): 639.34% | Percent increase in MMP-14 with respect to the control group (MMP-14; laryngeal tissue, Group 6, inhalation 0.1 mg/kg per day): 543.12% | Percent increase in MMP-14 with respect to the control group (MMP-14; laryngeal tissue, Group 7, inhalation 0.2 mg/kg per day): 342.23% | Percent increase in MMP-14 with respect to the control group (MMP-14; laryngeal tissue, Group 8, inhalation 0.4 mg/kg per day): 201.28% | Percent increase in MMP-14 with respect to the control group (MMP-14; lung tissue, Group 1, oral 10 mg/kg per day): 683.47% | Percent increase in MMP-14 with respect to the control group (MMP-14; lung tissue, Group 2, oral 40 mg/kg per day): 569.37% | Percent increase in MMP-14 with respect to the control group (MMP-14; lung tissue, Group 3, oral 80 mg/kg per day): 441.85% | Percent increase in MMP-14 with respect to the control group (MMP-14; lung tissue, Group 4, oral 100 mg/kg per day): 354.84% | Percent increase in MMP-14 with respect to the control group (MMP-14; lung tissue, Group 5, inhalation 0.05 mg/kg per day): 769.70% | Percent increase in MMP-14 with respect to the control group (MMP-14; lung tissue, Group 6, inhalation 0.1 mg/kg per day): 323.25% | Percent increase in MMP-14 with respect to the control group (MMP-14; lung tissue, Group 7, inhalation 0.2 mg/kg per day): 184.50% | Percent increase in MMP-14 with respect to the control group (MMP-14; lung tissue, Group 8, inhalation 0.4 mg/kg per day): 153.36% | Percent increase in MMP-14 with respect to the control group (MMP-14; nasal cavity tissue, Group 1, oral 10 mg/kg per day): 1,016.51% | Percent increase in MMP-14 with respect to the control group (MMP-14; nasal cavity tissue, Group 2, oral 40 mg/kg per day): 680.45% | Percent increase in MMP-14 with respect to the control group (MMP-14; nasal cavity tissue, Group 3, oral 80 mg/kg per day): 412.64% | Percent increase in MMP-14 with respect to the control group (MMP-14; nasal cavity tissue, Group 4, oral 100 mg/kg per day): 317.68% | Percent increase in MMP-14 with respect to the control group (MMP-14; nasal cavity tissue, Group 5, inhalation 0.05 mg/kg per day): 1,190.13% | Percent increase in MMP-14 with respect to the control group (MMP-14; nasal cavity tissue, Group 6, inhalation 0.1 mg/kg per day): 510.81% | Percent increase in MMP-14 with respect to the control group (MMP-14; nasal cavity tissue, Group 7, inhalation 0.2 mg/kg per day): 206.80% | Percent increase in MMP-14 with respect to the control group (MMP-14; nasal cavity tissue, Group 8, inhalation 0.4 mg/kg per day): 149.00% | Percent increase in MMP-14 with respect to the control group (MMP-14; pharyngeal tissue, Group 1, oral 10 mg/kg per day): 1,148.43% | Percent increase in MMP-14 with respect to the control group (MMP-14; pharyngeal tissue, Group 2, oral 40 mg/kg per day): 980.64% | Percent increase in MMP-14 with respect to the control group (MMP-14; pharyngeal tissue, Group 3, oral 80 mg/kg per day): 762.45% | Percent increase in MMP-14 with respect to the control group (MMP-14; pharyngeal tissue, Group 4, oral 100 mg/kg per day): 560.45% | Percent increase in MMP-14 with respect to the control group (MMP-14; pharyngeal tissue, Group 5, inhalation 0.05 mg/kg per day): 1,091.23% | Percent increase in MMP-14 with respect to the control group (MMP-14; pharyngeal tissue, Group 6, inhalation 0.1 mg/kg per day): 709.21% | Percent increase in MMP-14 with respect to the control group (MMP-14; pharyngeal tissue, Group 7, inhalation 0.2 mg/kg per day): 245.45%
